Test system: MV-4-11 cells
Experiment: Gene expression microarray analysis (Affymetrix PrimeView) and GSEA
Assay type: cell-based, human
Design: RFU PODN (11730768_x_at) / Fold change /veh PODN (11730768_x_at) / RFU LINC00158 (11744669_a_at) / Fold change /veh LINC00158 (11744669_a_at) / RFU DUSP10 (11751237_a_at) / Fold change /veh DUSP10 (11751237_a_at) / RFU ID3 (11757404_x_at) / Fold change /veh ID3 (11757404_x_at) / RFU PLEKHG5 (11737974_s_at) / Fold change /veh PLEKHG5 (11737974_s_at) / RFU LRRC4B (11730491_at) / Fold change /veh LRRC4B (11730491_at) / RFU GIMAP4 (11747438_a_at) / Fold change /veh GIMAP4 (11747438_a_at) / RFU KRT8 (11758183_x_at) / Fold change /veh KRT8 (11758183_x_at) / RFU CNN1 (11734310_a_at) / Fold change /veh CNN1 (11734310_a_at) / RFU VPS37D (11726825_at) / Fold change /veh VPS37D (11726825_at) / RFU C10orf10 (11716522_x_at) / Fold change /veh C10orf10 (11716522_x_at) / RFU KIR2DL2 /// KIR2DL4 /// KIR2DL5A /// KIR2DL5B /// KIR2DS1 /// KIR2DS2 /// KIR2DS3 /// KIR2DS4 /// KIR3DL3 /// KIR3DL3 /// KIR3DS1 (11738374_at) / Fold change /veh KIR2DL2 /// KIR2DL4 /// KIR2DL5A /// KIR2DL5B /// KIR2DS1 /// KIR2DS2 /// KIR2DS3 /// KIR2DS4 /// KIR3DL3 /// KIR3DL3 /// KIR3DS1 (11738374_at) / RFU C1QL1 (11718748_at) / Fold change /veh C1QL1 (11718748_at) / RFU TMPRSS4 (11747572_a_at) / Fold change /veh TMPRSS4 (11747572_a_at) / RFU HAMP (11756126_x_at) / Fold change /veh HAMP (11756126_x_at) / RFU RNFT2 (11725882_a_at) / Fold change /veh RNFT2 (11725882_a_at) / RFU NR4A2 (11747474_a_at) / Fold change /veh NR4A2 (11747474_a_at) / RFU ABCC12 (11746883_a_at) / Fold change /veh ABCC12 (11746883_a_at) / RFU TMEM136 (11760407_x_at) / Fold change /veh TMEM136 (11760407_x_at) / RFU CLDN22 /// WWC2 (11732394_at) / Fold change /veh CLDN22 /// WWC2 (11732394_at) / RFU HLA-DPB1 (11760878_x_at) / Fold change /veh HLA-DPB1 (11760878_x_at) / RFU SPINT1 (11716480_a_at) / Fold change /veh SPINT1 (11716480_a_at) / RFU GAP43 (11754022_s_at) / Fold change /veh GAP43 (11754022_s_at) / RFU A4GNT (11735810_at) / Fold change /veh A4GNT (11735810_at) / RFU PRB3 (11715151_x_at) / Fold change /veh PRB3 (11715151_x_at) / RFU TUBB4B (11761932_at) / Fold change /veh TUBB4B (11761932_at) / RFU CAPN14 (11732068_a_at) / Fold change /veh CAPN14 (11732068_a_at) / RFU TMCC2 (11721928_a_at) / Fold change /veh TMCC2 (11721928_a_at) / RFU IRGQ (11745062_a_at) / Fold change /veh IRGQ (11745062_a_at) / RFU FAM174B (11720279_a_at) / Fold change /veh FAM174B (11720279_a_at) / RFU TMPRSS4 (11748680_a_at) / Fold change /veh TMPRSS4 (11748680_a_at) / RFU FAM212B (11763350_a_at) / Fold change /veh FAM212B (11763350_a_at) / RFU PLEKHG5 (11743358_a_at) / Fold change /veh PLEKHG5 (11743358_a_at) / RFU ZSCAN30 (11745921_a_at) / Fold change /veh ZSCAN30 (11745921_a_at) / RFU CMKLR1 (11741424_a_at) / Fold change /veh CMKLR1 (11741424_a_at) / RFU LOC101060620 /// MAPK8IP1 (11723275_at) / Fold change /veh LOC101060620 /// MAPK8IP1 (11723275_at) / RFU SPTSSB (11747773_x_at) / Fold change /veh SPTSSB (11747773_x_at) / RFU PRSS12 (11739890_at) / Fold change /veh PRSS12 (11739890_at) / RFU BIN1 (11741810_x_at) / Fold change /veh BIN1 (11741810_x_at) / RFU WNT11 (11732464_a_at) / Fold change /veh WNT11 (11732464_a_at) / RFU C10orf10 (11716521_a_at) / Fold change /veh C10orf10 (11716521_a_at) / RFU C5orf56 (11738089_at) / Fold change /veh C5orf56 (11738089_at) / RFU CYB561 (11721691_x_at) / Fold change /veh CYB561 (11721691_x_at) / RFU ANKRD19P (11752326_a_at) / Fold change /veh ANKRD19P (11752326_a_at) / RFU OR2T12 /// OR2T33 /// OR2T8 (11738714_s_at) / Fold change /veh OR2T12 /// OR2T33 /// OR2T8 (11738714_s_at) / RFU VCAN (11748164_a_at) / Fold change /veh VCAN (11748164_a_at) / RFU JSRP1 (11732532_at) / Fold change /veh JSRP1 (11732532_at) / RFU KRTAP10-11 (11738290_x_at) / Fold change /veh KRTAP10-11 (11738290_x_at) / RFU MYO3A (11730013_a_at) / Fold change /veh MYO3A (11730013_a_at) / RFU EBF3 (11725865_a_at) / Fold change /veh EBF3 (11725865_a_at) / RFU CAMK2N1 (11719241_x_at) / Fold change /veh CAMK2N1 (11719241_x_at) / RFU C5orf56 (11738088_a_at) / Fold change /veh C5orf56 (11738088_a_at) / RFU OLFML3 (11715873_a_at) / Fold change /veh OLFML3 (11715873_a_at) / RFU LOC100653217 /// NTM (11731650_a_at) / Fold change /veh LOC100653217 /// NTM (11731650_a_at) / RFU MAPK11 (11762145_a_at) / Fold change /veh MAPK11 (11762145_a_at) / RFU FIZ1 (11724087_x_at) / Fold change /veh FIZ1 (11724087_x_at) / RFU OASL (11726364_x_at) / Fold change /veh OASL (11726364_x_at) / RFU SOX15 (11748057_x_at) / Fold change /veh SOX15 (11748057_x_at) / RFU CD79A (11719716_a_at) / Fold change /veh CD79A (11719716_a_at) / RFU HIST1H1D (11736915_at) / Fold change /veh HIST1H1D (11736915_at) / RFU CASKIN2 (11723855_a_at) / Fold change /veh CASKIN2 (11723855_a_at) / RFU LOC730098 (11760151_x_at) / Fold change /veh LOC730098 (11760151_x_at) / RFU OR4N2 (11742367_at) / Fold change /veh OR4N2 (11742367_at) / RFU PRRT2 (11749266_a_at) / Fold change /veh PRRT2 (11749266_a_at) / RFU SNX32 (11753110_a_at) / Fold change /veh SNX32 (11753110_a_at) / RFU CDHR5 (11726645_a_at) / Fold change /veh CDHR5 (11726645_a_at) / RFU RCAN1 (11760418_a_at) / Fold change /veh RCAN1 (11760418_a_at) / RFU FAM167A (11723789_a_at) / Fold change /veh FAM167A (11723789_a_at) / RFU FAM26E (11764081_at) / Fold change /veh FAM26E (11764081_at) / RFU ISYNA1 (11749810_s_at) / Fold change /veh ISYNA1 (11749810_s_at) / RFU ACY1 (11761880_at) / Fold change /veh ACY1 (11761880_at) / RFU 11764098_at / Fold change /veh 11764098_at / RFU SAMD14 (11745864_x_at) / Fold change /veh SAMD14 (11745864_x_at) / RFU NPB (11741838_a_at) / Fold change /veh NPB (11741838_a_at) / RFU TMPRSS6 (11731388_a_at) / Fold change /veh TMPRSS6 (11731388_a_at) / RFU KRTAP10-2 (11738614_at) / Fold change /veh KRTAP10-2 (11738614_at) / RFU ARHGAP8 /// PRR5-ARHGAP8 (11727945_x_at) / Fold change /veh ARHGAP8 /// PRR5-ARHGAP8 (11727945_x_at) / RFU KRTAP5-7 /// NADSYN1 (11734609_at) / Fold change /veh KRTAP5-7 /// NADSYN1 (11734609_at) / RFU RASL12 (11751679_a_at) / Fold change /veh RASL12 (11751679_a_at) / RFU CDKN2B (11736163_a_at) / Fold change /veh CDKN2B (11736163_a_at) / RFU PRF1 (11729649_at) / Fold change /veh PRF1 (11729649_at) / RFU, ZNF638 /// ZNF638-IT1 / Fold change vs veh, ZNF638 /// ZNF638-IT1 / RFU, PANK3 / Fold change vs veh, PANK3 / RFU, SH3YL1 / Fold change vs veh, SH3YL1 / RFU, ZEB2 / Fold change vs veh, ZEB2 / RFU, NRIP1 / Fold change vs veh, NRIP1 / RFU, PTTG1IP / Fold change vs veh, PTTG1IP / RFU, CAPN2 / Fold change vs veh, CAPN2 / RFU, MED14 / Fold change vs veh, MED14 / RFU, SNORA58 / Fold change vs veh, SNORA58 / RFU, C1orf63 / Fold change vs veh, C1orf63 / RFU, LRRFIP1 / Fold change vs veh, LRRFIP1 / RFU, NDUFAF7 / Fold change vs veh, NDUFAF7 / RFU, SLC12A2 / Fold change vs veh, SLC12A2 / RFU, IBTK / Fold change vs veh, IBTK / RFU, ESF1 / Fold change vs veh, ESF1 / Fold change vs veh, TMEM50B / RFU, TAOK1 / Fold change vs veh, TAOK1 / RFU, ACBD3 / Fold change vs veh, ACBD3 / RFU, TMA16 / Fold change vs veh, TMA16 / RFU, RWDD3 / Fold change vs veh, RWDD3 / RFU, BCAT1 / Fold change vs veh, BCAT1 / RFU, EDEM3 / Fold change vs veh, EDEM3 / RFU, TMEM33 / Fold change vs veh, TMEM33 / RFU, WDR75 / Fold change vs veh, WDR75 / RFU, AHCTF1 / Fold change vs veh, AHCTF1 / RFU, TFRC / Fold change vs veh, TFRC / RFU, ZDHHC17 / Fold change vs veh, ZDHHC17 / RFU, NOM1 / Fold change vs veh, NOM1 / RFU, ARL8B / Fold change vs veh, ARL8B / RFU, ZBTB11 / Fold change vs veh, ZBTB11 / RFU, TAMM41 / Fold change vs veh, TAMM41 / RFU, KIAA1704 /// LOC100996395 / Fold change vs veh, KIAA1704 /// LOC100996395 / RFU, ING1 / Fold change vs veh, ING1 / RFU, TRMT61B / Fold change vs veh, TRMT61B / RFU, FUBP3 / Fold change vs veh, FUBP3 / RFU, TP53 / Fold change vs veh, TP53 / RFU, TNKS2 / Fold change vs veh, TNKS2 / RFU, ZFP14 / Fold change vs veh, ZFP14 / RFU, ACTR2 / Fold change vs veh, ACTR2 / RFU, PPP3R1 / Fold change vs veh, PPP3R1 / RFU, PIK3R1 / Fold change vs veh, PIK3R1 / RFU, HNRNPA1 / Fold change vs veh, HNRNPA1 / RFU, RNF170 / Fold change vs veh, RNF170 / RFU, ZNF28 / Fold change vs veh, ZNF28 / RFU, RNGTT / Fold change vs veh, RNGTT / RFU, OGT / Fold change vs veh, OGT / RFU, BRD1 / Fold change vs veh, BRD1 / RFU, MARS / Fold change vs veh, MARS / RFU, ZNF655 / Fold change vs veh, ZNF655 / RFU, FAHD1 / Fold change vs veh, FAHD1 / RFU, BDP1 / Fold change vs veh, BDP1 / RFU, LRRCC1 / Fold change vs veh, LRRCC1 / RFU, ARID1A / Fold change vs veh, ARID1A / RFU, ZNF146 / Fold change vs veh, ZNF146 / RFU, ZNF330 / Fold change vs veh, ZNF330 / RFU, GPN3 / Fold change vs veh, GPN3 / RFU, C9orf123 / Fold change vs veh, C9orf123 / RFU, N4BP2L2 / Fold change vs veh, N4BP2L2 / RFU, ARFIP1 / Fold change vs veh, ARFIP1 / RFU, FAM179B / Fold change vs veh, FAM179B / RFU, BCL10 / Fold change vs veh, BCL10 / RFU, UHRF1BP1L / Fold change vs veh, UHRF1BP1L / RFU, BET1 / Fold change vs veh, BET1 / RFU, CNOT2 / Fold change vs veh, CNOT2 / RFU, ZNF268 / Fold change vs veh, ZNF268 / Fold change vs veh, ZNF507 / RFU, DGCR2 / Fold change vs veh, DGCR2 / RFU, WDSUB1 / Fold change vs veh, WDSUB1 / Fold change vs veh, HSP90B1 /// MIR3652 / RFU, ADSS / Fold change vs veh, ADSS / RFU, GK / Fold change vs veh, GK / RFU, ZNF148 / Fold change vs veh, ZNF148 / RFU, TAF9 / Fold change vs veh, TAF9 / RFU, SLC1A5 / Fold change vs veh, SLC1A5 / RFU, SLMO2 / Fold change vs veh, SLMO2 / RFU, ABCC4 / Fold change vs veh, ABCC4 / RFU, LOC101060439 /// RAP1B / Fold change vs veh, LOC101060439 /// RAP1B / RFU, RFX7 / Fold change vs veh, RFX7 / RFU, GTPBP10 / Fold change vs veh, GTPBP10 / RFU, CNEP1R1 / Fold change vs veh, CNEP1R1 / RFU, BIVM-ERCC5 /// ERCC5 / Fold change vs veh, BIVM-ERCC5 /// ERCC5 / RFU, ILF3 / Fold change vs veh, ILF3 / RFU 11762660_at / Fold change /veh 11762660_at / RFU VCAN (11757783_s_at) / Fold change /veh VCAN (11757783_s_at) / RFU DDX43 (11728927_at) / Fold change /veh DDX43 (11728927_at) / RFU KRT8 (11758188_x_at) / Fold change /veh KRT8 (11758188_x_at) / RFU NKD1 (11759106_at) / Fold change /veh NKD1 (11759106_at) / RFU SRD5A1 (11742802_a_at) / Fold change /veh SRD5A1 (11742802_a_at) / RFU TPSAB1 /// TPSB2 (11721975_s_at) / Fold change /veh TPSAB1 /// TPSB2 (11721975_s_at) / RFU GSTM3 (11746129_a_at) / Fold change /veh GSTM3 (11746129_a_at) / RFU IL23R (11737362_x_at) / Fold change /veh IL23R (11737362_x_at) / RFU TMEM51 (11727254_a_at) / Fold change /veh TMEM51 (11727254_a_at) / RFU PIWIL2 (11732686_x_at) / Fold change /veh PIWIL2 (11732686_x_at) / RFU ORM1 (11744905_x_at) / Fold change /veh ORM1 (11744905_x_at) / RFU CCDC152 (11743942_at) / Fold change /veh CCDC152 (11743942_at) / RFU ECM1 (11717891_a_at) / Fold change /veh ECM1 (11717891_a_at) / RFU IL23R (11748794_a_at) / Fold change /veh IL23R (11748794_a_at) / RFU TNFAIP8L3 (11732012_x_at) / Fold change /veh TNFAIP8L3 (11732012_x_at) / RFU MBOAT4 (11741988_at) / Fold change /veh MBOAT4 (11741988_at) / RFU 11764193_at / Fold change /veh 11764193_at / RFU TMEM53 (11763286_at) / Fold change /veh TMEM53 (11763286_at) / RFU MAGEB2 (11727129_at) / Fold change /veh MAGEB2 (11727129_at) / RFU TMEM200A (11744735_a_at) / Fold change /veh TMEM200A (11744735_a_at) / RFU CCDC152 (11751479_a_at) / Fold change /veh CCDC152 (11751479_a_at) / RFU FAM211A (11726209_a_at) / Fold change /veh FAM211A (11726209_a_at) / RFU RGS16 (11746705_a_at) / Fold change /veh RGS16 (11746705_a_at) / RFU VCAN (11755009_s_at) / Fold change /veh VCAN (11755009_s_at) / RFU RHOB (11743442_s_at) / Fold change /veh RHOB (11743442_s_at) / RFU RGS16 (11720943_a_at) / Fold change /veh RGS16 (11720943_a_at) / RFU RGS16 (11720944_at) / Fold change /veh RGS16 (11720944_at) / RFU, VPS4B / Fold change vs veh, VPS4B / RFU, CREB1 / Fold change vs veh, CREB1 / RFU, DNAJC13 / Fold change vs veh, DNAJC13 / RFU, GNAQ / Fold change vs veh, GNAQ / RFU, CDK5R1 / Fold change vs veh, CDK5R1 / RFU, ZRANB3 / Fold change vs veh, ZRANB3 / RFU, CUL4A / Fold change vs veh, CUL4A / RFU, CCNY / Fold change vs veh, CCNY / RFU, UFL1 / Fold change vs veh, UFL1 / RFU, COG3 / Fold change vs veh, COG3 / RFU, DIAPH2 / Fold change vs veh, DIAPH2 / RFU, SKA2 / Fold change vs veh, SKA2 / RFU, AFF3 / Fold change vs veh, AFF3 / RFU, LMF1 / Fold change vs veh, LMF1 / RFU, IPO11 / Fold change vs veh, IPO11 / RFU, DFFB / Fold change vs veh, DFFB / RFU, FOXP1 / Fold change vs veh, FOXP1 / RFU, CARD8 / Fold change vs veh, CARD8 / RFU, STRN3 / Fold change vs veh, STRN3 / RFU, ADK / Fold change vs veh, ADK / RFU, RASSF2 / Fold change vs veh, RASSF2 / RFU, WIPF1 / Fold change vs veh, WIPF1 / RFU, LARP1B / Fold change vs veh, LARP1B / RFU, RASA1 / Fold change vs veh, RASA1 / RFU, RB1 / Fold change vs veh, RB1 / RFU, PPFIA1 / Fold change vs veh, PPFIA1 / RFU, MAT2A / Fold change vs veh, MAT2A / RFU, CCT5 / Fold change vs veh, CCT5 / RFU, WDR92 / Fold change vs veh, WDR92 / RFU, CUX1 / Fold change vs veh, CUX1 / RFU, TTC7A / Fold change vs veh, TTC7A / RFU, TMEM135 / Fold change vs veh, TMEM135 / RFU, DEPTOR / Fold change vs veh, DEPTOR / RFU, CPM / Fold change vs veh, CPM / RFU, DNAJB6 / Fold change vs veh, DNAJB6 / RFU, CACNA2D3 / Fold change vs veh, CACNA2D3 / RFU, DTX4 / Fold change vs veh, DTX4 / RFU, TFCP2 / Fold change vs veh, TFCP2 / RFU, GMCL1 /// GMCL1P1 / Fold change vs veh, GMCL1 /// GMCL1P1 / RFU, AEBP2 / Fold change vs veh, AEBP2 / RFU, SNHG1 /// SNORD22 /// SNORD25 /// SNORD26 /// SNORD27 /// SNORD28 /// SNORD29 /// SNORD31 / Fold change vs veh, SNHG1 /// SNORD22 /// SNORD25 /// SNORD26 /// SNORD27 /// SNORD28 /// SNORD29 /// SNORD31 / Fold change (Aza/veh), C12orf56 (ProbeSet 11735607_a_at) / Fold change (ACY-1035/veh), C12orf56 (ProbeSet 11735607_a_at) / Fold change (Aza/veh), FGFR1OP (ProbeSet 11751329_s_at) / Fold change (ACY-1035/veh), FGFR1OP (ProbeSet 11751329_s_at) / Fold change (Aza/veh), VPS36 (ProbeSet 11739960_a_at) / Fold change (ACY-1035/veh), VPS36 (ProbeSet 11739960_a_at) / RFU SYPL1 (11715823_x_at) / Fold change /veh SYPL1 (11715823_x_at) / RFU IGFBP7 (11715501_s_at) / Fold change /veh IGFBP7 (11715501_s_at) / RFU REEP3 (11722064_at) / Fold change /veh REEP3 (11722064_at) / RFU IGLL1 (11728026_x_at) / Fold change /veh IGLL1 (11728026_x_at): dose or concentration left out as unconfirmed
Conditions: MV-4-11 cells, 48 hours

Nc1ncn([C@@H]2O[C@H](CO)[C@@H](O)[C@H]2O)c(=O)n1 [azacitidine]
Fold change /veh DDX43 (11728927_at): 1.23
